# Columns and labels:
# Format in all cases: in vivo
# Details in all cases: evaluated after 13 days
# [1] = tested on: Triticum aestivium (TRZAW); assay: Pre-emergence herbicidal activity, Triticum aestivium; set-up: key: 5=total damage to plant; 0=no damage to plant
# How it was run: (§1)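 Pre-emergence spray, 1 d after sowing; formulation acetone/water 50:50 + 0.5% Tween 20. Glasshouse 24/16 °C, 14 h light, 65% RH, watered twice daily. Damage scored day 13, 0 (none) to 5 (total).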
# [2] = tested on: Triticum aestivium (TRZAW); assay: Post-emergence herbicidal activity, Triticum aestivium; set-up: key: 5=total damage to plant; 0=no damage to plant
# How it was run: (§2)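 Scores (0 no damage to 5 total damage) read 13 d after spraying. Plants sprayed post-emergence 8 d after sowing; spray solution acetone/water 50:50 with 0.5% Tween 20. Growth at 24/16 °C day/night, 14 h light, 65% RH, twice-daily watering.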
# [3] = tested on: Echinochloa crus-galli (ECHCG); assay: Post-emergence herbicidal activity, Echinochloa crus-galli; set-up: key: 5=total damage to plant; 0=no damage to plant
# How it was run: as §2
# [4] = tested on: Echinochloa crus-galli (ECHCG); assay: Pre-emergence herbicidal activity, Echinochloa crus-galli
# How it was run: as §1
# [5] = tested on: Lolium perenne (LOLPE); assay: Post-emergence herbicidal activity, Lolium perenne
# How it was run: as §2
# [6] = tested on: Setaria faberi (SETFA); assay: Pre-emergence herbicidal activity, Setaria faberi; set-up: key: 5=total damage to plant; 0=no damage to plant
# How it was run: as §1
# [7] = tested on: Avena fatua (AVEFA); assay: Pre-emergence herbicidal activity, Avena fatua; set-up: key: 5=total damage to plant; 0=no damage to plant
# How it was run: as §1
# [8] = tested on: Alopecurus myosuroides (ALOMY); assay: Post-emergence herbicidal activity, Alopecurus myosuroides; set-up: key: 5=total damage to plant; 0=no damage to plant
# How it was run: as §2
# [9] = tested on: Avena fatua (AVEFA); assay: Post-emergence herbicidal activity, Avena fatua
# How it was run: as §2
# [10] = tested on: Lolium perenne (LOLPE); assay: Pre-emergence herbicidal activity, Lolium perenne; set-up: key: 5=total damage to plant; 0=no damage to plant
# How it was run: as §1
# [11] = tested on: Setaria faberi (SETFA); assay: Post-emergence herbicidal activity, Setaria faberi; set-up: key: 5=total damage to plant; 0=no damage to plant
# How it was run: as §2
# [12] = tested on: Alopecurus myosuroides (ALOMY); assay: Pre-emergence herbicidal activity, Alopecurus myosuroides; set-up: key: 5=total damage to plant; 0=no damage to plant
# How it was run: as §1
Structure (SMILES),Control of TRAZW after pre-emergence application (score 0-5) ([1]; 1000 g/ha),Control of TRAZW after post-emergence application (score 0-5) ([2]; 1000 g/ha),Control of ECHCG after post-emergence application (score 0-5) ([3]; 1000 g/ha),Control of ECHCG after pre-emergence application (score 0-5) ([4]; 1000 g/ha),Control of LOLPE after post-emergence application (score 0-5) ([5]; 1000 g/ha),Control of SETFA after pre-emergence application (score 0-5) ([6]; 1000 g/ha),Control of AVEFA after pre-emergence application (score 0-5) ([7]; 1000 g/ha),Control of ALOMY after post-emergence application (score 0-5) ([8]; 1000 g/ha),Control of AVEFA after post-emergence application (score 0-5) ([9]; 1000 g/ha),Control of LOLPE after pre-emergence application (score 0-5) ([10]; 1000 g/ha),Control of SETFA after post-emergence application (score 0-5) ([11]; 1000 g/ha),Control of ALOMY after pre-emergence application (score 0-5) ([12]; 1000 g/ha),further results
O=C(Nc1ccc(-c2cncc(F)c2)nc1C(F)(F)F)OC1CCCCC1 [Compound B108],0,0,0,3,1,5,2,0,3,2,5,0,
C=CCOC(=O)Nc1ccc(-c2cncc(F)c2)nc1C(F)(F)F [Compound B119],0,0,3,3,3,5,2,0,4,0,5,0,
CC#Cc1cncc(-c2ccc(NC(=O)OC(C)(C)C)c(C)n2)c1 [Compound B33],0,2,2,2,3,4,2,2,4,1,5,0,
COCCOC(=O)Nc1ccc(-c2cncc(F)c2)nc1C(F)(F)F [Compound B59],0,1,5,4,3,3,2,1,3,2,4,1,
Cc1cnc(CNC(=O)Nc2ccc(-c3cncc(F)c3)nc2C(F)(F)F)cn1 [Compound B92],,,,,,,,,,,,,Control of TRAZW after pre-emergence application (score 0-5) ([1]; 250 g/ha): 0; Control of TRAZW after post-emergence application (score 0-5) ([2]; 250 g/ha): 0; Control of ECHCG after post-emergence application (score 0-5) ([3]; 250 g/ha): 3; Control of ECHCG after pre-emergence application (score 0-5) ([4]; 250 g/ha): 1; Control of LOLPE after post-emergence application (score 0-5) ([5]; 250 g/ha): 1; Control of SETFA after pre-emergence application (score 0-5) ([6]; 250 g/ha): 5; Control of AVEFA after pre-emergence application (score 0-5) ([7]; 250 g/ha): 1; Control of ALOMY after post-emergence application (score 0-5) ([8]; 250 g/ha): 0; Control of AVEFA after post-emergence application (score 0-5) ([9]; 250 g/ha): 3; Control of LOLPE after pre-emergence application (score 0-5) ([10]; 250 g/ha): 0; Control of SETFA after post-emergence application (score 0-5) ([11]; 250 g/ha): 4; Control of ALOMY after pre-emergence application (score 0-5) ([12]; 250 g/ha): 0
O=C(Nc1ccc(-c2cncnc2)nc1C(F)(F)F)N1CCOCC1 [Compound B55],0,0,3,1,1,1,1,0,2,0,4,0,
O=C(Nc1ccc(-c2cncc(F)c2)nc1C(F)(F)F)NN1CCOCC1 [Compound B69],0,1,4,2,2,4,1,0,3,1,4,0,
"CC(C)(C)OC(=O)Nc1ccc(-c2cncc(F)c2)nc1C#N [Compound B34, tert-butyl N-[2-cyano-6-(5-fluoro-3-pyridyl)-3-pyridyl]carbamate]",0,1,5,4,1,5,0,0,2,1,4,0,
O=C(Nc1ccc(-c2cncc(F)c2)nc1C(F)(F)F)OCC(F)(F)F [Compound B57],0,0,4,2,2,3,1,0,3,1,3,0,
O=C(NCC1CCCCC1)Nc1ccc(-c2cncc(F)c2)nc1C(F)(F)F [Compound B80],,,,,,,,,,,,,Control of TRAZW after pre-emergence application (score 0-5) ([1]; 250 g/ha): 0; Control of TRAZW after post-emergence application (score 0-5) ([2]; 250 g/ha): 0; Control of ECHCG after post-emergence application (score 0-5) ([3]; 250 g/ha): 1; Control of ECHCG after pre-emergence application (score 0-5) ([4]; 250 g/ha): 1; Control of LOLPE after post-emergence application (score 0-5) ([5]; 250 g/ha): 1; Control of SETFA after pre-emergence application (score 0-5) ([6]; 250 g/ha): 2; Control of AVEFA after pre-emergence application (score 0-5) ([7]; 250 g/ha): 1; Control of ALOMY after post-emergence application (score 0-5) ([8]; 250 g/ha): 0; Control of AVEFA after post-emergence application (score 0-5) ([9]; 250 g/ha): 2; Control of LOLPE after pre-emergence application (score 0-5) ([10]; 250 g/ha): 2; Control of SETFA after post-emergence application (score 0-5) ([11]; 250 g/ha): 2; Control of ALOMY after pre-emergence application (score 0-5) ([12]; 250 g/ha): 0
O=C(Nc1ccc(-c2cncc(F)c2)nc1C(F)(F)F)OCc1ccc(Cl)cc1 [Compound B105],0,0,4,2,1,5,1,0,3,1,5,0,
"O=C(Nc1ccc(-c2cncc(F)c2)nc1C(F)(F)F)N1CCSC1 [Compound B68, N-[6-(5-fluoro-3-pyridyl)-2-(trifluoromethyl)-3-pyridyl]thiazolidine-3-carboxamide]",0,2,5,3,2,4,2,0,3,1,5,1,

# — patent publication US20210127673A1, “HERBICIDES” (SYNGENTA PARTICIPATIONS AG, priority 2016, published 2021)
